The values that follow are results of earlier work, collected in patent US20110177042A1, “Method for Dedifferentiating Melanocytes” (priority 2008, published 2011).

This data set concerns Notch1. The conditions noted are these: identified in cited literature (Xiao 2009; Adler 2008; Stockhausen 2005).

On to `O=C(CCCCCCC(=O)NO)NO` [suberoyl bis-hydroxamic acid], for which the Notch1 activation result is “strong Notch1 activators”.
Turning to `CCCC(CCC)C(=O)O` [valproic acid], the Notch1 activation entry is listed as “strong Notch1 activators”.
